One compound from EP0336417A2, “Phosphonate initiators for light cured compositions” (DENTSPLY INTERNATIONAL, INC., priority 1988, dated 1989) can be followed below.

A short description of this data set: Solubility of initiator in NCO/TEGDMA resin. It counts as physicochemical. As to conditions: not soluble above about 2%; percentages by weight. The text has this: NCO/TEGDMA is a resin blend described in copending SN 040, 636 and used as illustrated in U.S. patent 4,514,174 and comprises a blend of NCO, the reaction product of hexamethylene diisocyanate (HMDI) and Bis-GMA [drawing 4] , and triethyleneglycol dimethacrylate (TEGDMA). At concentrations above about 2%, the benzoyl di (2,6 dimethylphenyl) phosphonate is not soluble in NCO/-TEGDMA resin. When used with an NCO/-TEGDMA resin in concentrations up to about 2%, however, the resin can be cured to a clear, hard film.

Consider `Cc1cccc(C)c1OP(=O)(Oc1c(C)cccc1C)C(=O)c1ccccc1` [Benzoyl di-(2,6-dimethylphenyl) phosphonate], for which the “concentration up to which soluble in NCO/TEGDMA resin” value is “about 2%”.
